Laboratory results from patent publication US8846933B2, “N-link hydroxamic acid derivatives useful as antibacterial agents” (Pfizer Inc., priority 2009, dated 2014).

Legend:
[1] = tested on: Escherichia coli EC-1: VOGEL, mouse virulent; assay: MIC determination (CLSI), strain EC-1; assay type: cell-based; settings: strain EC-1, unit assumed
Method: (§1) The in vitro antibacterial activity of compounds described in the Examples was evaluated by minimum inhibitory concentration (MIC) testing according to Clinical and Laboratory Standards Institute (CLSI, formerly NCCLS) guidelines. See: Clinical and Laboratory Standards Institute. Methods for Dilution Antimicrobial Susceptibility Tests for Bacteria that Grow Aerobically; Approved Standard-Seventh Edition. CLSI document M7-A7 [ISBN 1-56238-587-9]. Clinical and Laboratory Standards Institute, 940 West Valley Road, Suite 1400, Wayne, Pa. 19087-1898 USA, 2006; also Clinical and Laboratory Standards Institute. Performance Standards for Antimicrobial Susceptibility Testing; Eighteenth Informational Supplement. CLSI document M100-S18 [ISBN1-56238-653-0].Clinical and Laboratory Standards Institute.
(§2) The following bacterial strains were used in these MIC determinations:
3) Escherichia coli EC-1: VOGEL, mouse virulent labeled as EC-1 in Tables 4 and 5;

[2] = tested on: Pseudomonas aeruginosa UI-18: Wild-type (PA-7); assay: MIC determination (CLSI), strain PA-7; assay type: cell-based; settings: strain PA-7, unit assumed
Method: as §1, §2
1) Pseudomonas aeruginosa UI-18: Wild-type, labeled as PA-7 in Tables 4, and 5;

[3] = generated in the same manner as in Table 4

Structure (SMILES) | EC-1 (MIC) [1] | PA-7 (MIC) [2] | EC-1 (MIC) [1, 3] | PA-7 (MIC) [2, 3]
CC(CCn1ccc(-c2ccc(OCC3CCCO3)cc2)cc1=O)(C(=O)NO)S(C)(=O)=O (mixture of isomers) [Example 462] | 0.5 µg/mL | 1 µg/mL | – | –
CC1CC(=O)Nc2ccc(-c3ccn(CCC(C)(C(=O)NO)S(C)(=O)=O)c(=O)c3)cc21 (mixture of isomers) [Example 484] | > 64 µg/mL | > 64 µg/mL | – | –
CC(CCn1ccc(-c2ccc(C(F)(F)CO)cc2)cc1=O)(C(=O)NO)S(C)(=O)=O (stereo not shown) [Example 69, 4-{4-[4-(1,1-difluoro-2-hydroxyethyl)phenyl]-2-oxopyridin-1(2H)-yl}-N-hydroxy-2-methyl-2-(methylsulfonyl)butanamide] | – | – | 4 µg/mL | 16 µg/mL
CC(CCn1ccc(-c2ccc(O)c(F)c2)cc1=O)(C(=O)NO)S(C)(=O)=O (stereo not shown) [Example 70, 4-[4-(3-fluoro-4-hydroxyphenyl)-2-oxopyridin-1(2H)-yl]-N-hydroxy-2-methyl-2-(methylsulfonyl)butanamide] | – | – | > 64 µg/mL | > 64 µg/mL
CC(CCn1ccc(-c2ccc(OCCCN3CCOCC3)cc2)cc1=O)(C(=O)NO)S(C)(=O)=O (stereo not shown) [Example 71, N-hydroxy-2-methyl-2-(methylsulfonyl)-4-{4-[4-(3-morpholin-4-ylpropoxy)phenyl]-2-oxopyridin-1(2H)-yl}butanamide] | – | – | 2 µg/mL | 4 µg/mL
CC(CCn1ccc(-c2ccc(CO)cc2)cc1=O)(C(=O)NO)S(C)(=O)=O (stereo not shown) [Example 72, N-hydroxy-4-{4-[4-(hydroxymethyl)phenyl]-2-oxopyridin-1(2H)-yl}-2-methyl-2-(methylsulfonyl)butanamide] | – | – | > 64 µg/mL | 16 µg/mL
CC(CCn1ccc(-c2ccc(C(=O)CO)cc2)cc1=O)(C(=O)NO)S(C)(=O)=O (stereo not shown) [Example 73, 4-[4-(4-glycoloylphenyl)-2-oxopyridin-1(2H)-yl]-N-hydroxy-2-methyl-2-(methylsulfonyl)butanamide] | – | – | > 64 µg/mL | 64 µg/mL
CC(CCn1ccc(-c2ccc(OCCN3CCCC3)cc2)cc1=O)(C(=O)NO)S(C)(=O)=O (stereo not shown) [Example 74] | – | – | > 64 µg/mL | > 64 µg/mL
CC(CCn1ccc(-c2ccc(OCCCCO)cc2)cc1=O)(C(=O)NO)S(C)(=O)=O (stereo not shown) [Example 75, N-hydroxy-4-{4-[4-(4-hydroxybutoxy)phenyl]-2-oxopyridin-1(2H)-yl}-2-methyl-2-(methylsulfonyl)butanamide] | – | – | 2 µg/mL | 4 µg/mL
CC(CCn1ccc(-c2ccc(OCCO)c(F)c2)cc1=O)(C(=O)NO)S(C)(=O)=O (stereo not shown) [Example 76, 4-{4-[3-fluoro-4-(2-hydroxyethoxy)phenyl]-2-oxopyridin-1(2H)-yl}-N-hydroxy-2-methyl-2-(methylsulfonyl)butanamide] | – | – | 16 µg/mL | 32 µg/mL
CC(CCn1ccc(-c2ccc(OCCCN3CCCCC3)cc2)cc1=O)(C(=O)NO)S(C)(=O)=O (stereo not shown) [Example 77] | – | – | 64 µg/mL | 64 µg/mL
CC(CCn1ccc(-c2ccc(OCCCN3CCCC3)cc2)cc1=O)(C(=O)NO)S(C)(=O)=O (stereo not shown) [Example 78] | – | – | > 64 µg/mL | > 64 µg/mL
CC(CCn1ccc(-c2ccc3[nH]ccc3c2)cc1=O)(C(=O)NO)S(C)(=O)=O (stereo not shown) [Example 79] | – | – | 4 µg/mL | 4 µg/mL
C/C(=N\O)c1ccc(-c2ccn(CCC(C)(C(=O)NO)S(C)(=O)=O)c(=O)c2)cc1 (stereo not shown) [Example 80, N-hydroxy-4-[4-{4-[(1E)-N-hydroxyethanimidoyl]phenyl}-2-oxopyridin-1(2H)-yl]-2-methyl-2-(methylsulfonyl)butanamide] | – | – | 8 µg/mL | 32 µg/mL
CC(CCn1ccc(-c2ccc(OCCCN3CCSCC3)cc2)cc1=O)(C(=O)NO)S(C)(=O)=O (stereo not shown) [Example 81, N-hydroxy-2-methyl-2-(methylsulfonyl)-4-{2-oxo-4-[4-(3-thiomorpholin-4-ylpropoxy)phenyl]pyridin-1(2H)-yl}butanamide] | – | – | 2 µg/mL | 4 µg/mL
CC(CCn1ccc(-c2ccc(OCCCN3CCS(=O)(=O)CC3)cc2)cc1=O)(C(=O)NO)S(C)(=O)=O (stereo not shown) [Example 82, 4-[4-{4-[3-(1,1-dioxidothiomorpholin-4-yl)propoxy]phenyl}-2-oxopyridin-1(2H)-yl]-N-hydroxy-2-methyl-2-(methylsulfonyl)butanamide] | – | – | 8 µg/mL | 32 µg/mL
CC(CCn1ccc(-c2ccc(OCCCN3CCC(O)CC3)cc2)cc1=O)(C(=O)NO)S(C)(=O)=O (stereo not shown) [Example 83, N-hydroxy-4-[4-{4-[3-(4-hydroxypiperidin-1-yl)propoxy]phenyl}-2-oxopyridin-1(2H)-yl]-2-methyl-2-(methylsulfonyl)butanamide] | – | – | 32 µg/mL | 16 µg/mL
CC(CCn1ccc(-c2ccc(OCCCN3CC(O)C3)cc2)cc1=O)(C(=O)NO)S(C)(=O)=O (stereo not shown) [Example 84, N-hydroxy-4-[4-{4-[3-(3-hydroxyazetidin-1-yl)propoxy]phenyl}-2-oxopyridin-1(2H)-yl]-2-methyl-2-(methylsulfonyl)butanamide] | – | – | > 64 µg/mL | 32 µg/mL

Structure (SMILES) | EC-1 (MIC) [1] | PA-7 (MIC) [2] | EC-1 (MIC) [1, 3] | PA-7 (MIC) [2, 3]
CC(CCn1ccc(-c2ccc(OCCO)cc2F)cc1=O)(C(=O)NO)S(C)(=O)=O (stereo not shown) [Example 85, 4-{4-[2-fluoro-4-(2-hydroxyethoxy)phenyl]-2-oxopyridin-1(2H)-yl}-N-hydroxy-2-methyl-2-(methylsulfonyl)butanamide] | – | – | 16 µg/mL | 16 µg/mL
CC(CCn1ccc(-c2ccc(OCCCN3CCNC(=O)C3)cc2)cc1=O)(C(=O)NO)S(C)(=O)=O (stereo not shown) [Example 86, N-hydroxy-2-methyl-2-(methylsulfonyl)-4-[2-oxo-4-{4-[3-(3-oxopiperazin-1-yl)propoxy]phenyl}pyridin-1(2H)-yl]butanamide] | – | – | 16 µg/mL | 32 µg/mL
CN1CCN(CCCOc2ccc(-c3ccn(CCC(C)(C(=O)NO)S(C)(=O)=O)c(=O)c3)cc2)CC1 (stereo not shown) [Example 87] | – | – | 64 µg/mL | 32 µg/mL
CC(CCn1ccc(-c2ccc(OCCCc3cccnc3)cc2)cc1=O)(C(=O)NO)S(C)(=O)=O (stereo not shown) [Example 88] | – | – | 0.25 µg/mL | 2 µg/mL
CC(CCn1ccc(-c2ccc(OCCCc3ccncc3)cc2)cc1=O)(C(=O)NO)S(C)(=O)=O (stereo not shown) [Example 89] | – | – | 0.25 µg/mL | 2 µg/mL
COc1cccc(-c2ccn(CCC(C)(C(=O)NO)S(C)(=O)=O)c(=O)c2)c1F (stereo not shown) [Example 90] | – | – | 0.5 µg/mL | 2 µg/mL
CC(CCn1ccc(-c2cc3ccccc3[nH]2)cc1=O)(C(=O)NO)S(C)(=O)=O (stereo not shown) [Example 91] | – | – | 4 µg/mL | 16 µg/mL
CC(CCn1ccc(-c2ccc(OCCCn3cncn3)cc2)cc1=O)(C(=O)NO)S(C)(=O)=O (stereo not shown) [Example 92, N-hydroxy-2-methyl-2-(methylsulfonyl)-4-[2-oxo-4-{4-[3-(1H-1,2,4-triazol-1-yl)propoxy]phenyl}pyridin-1(2H)-yl]butanamide] | – | – | 8 µg/mL | 16 µg/mL
CC(CCn1ccc(-c2ccc(OCCCN3CCC(F)(F)C3)cc2)cc1=O)(C(=O)NO)S(C)(=O)=O (stereo not shown) [Example 93, 4-[4-{4-[3-(3,3-difluoropyrrolidin-1-yl)propoxy]phenyl}-2-oxopyridin-1(2H)-yl]-N-hydroxy-2-methyl-2-(methylsulfonyl)butanamide] | – | – | 1 µg/mL | 8 µg/mL
CC(CCn1ccc(-c2ccc(OCCN3CCOCC3)cc2)cc1=O)(C(=O)NO)S(C)(=O)=O (stereo not shown) [Example 94] | – | – | 2 µg/mL | 4 µg/mL
CC(CCn1ccc(-c2ccc(-c3cc(CO)no3)cc2)cc1=O)(C(=O)NO)S(C)(=O)=O (stereo not shown) [Example 95, N-hydroxy-4-[4-{4-[3-(hydroxymethyl)isoxazol-5-yl]phenyl}-2-oxopyridin-1(2H)-yl]-2-methyl-2-(methylsulfonyl)butanamide] | – | – | 8 µg/mL | 8 µg/mL
CC(CCn1ccc(-c2cccc(O)c2F)cc1=O)(C(=O)NO)S(C)(=O)=O (stereo not shown) [Example 96] | – | – | 64 µg/mL | > 64 µg/mL
CC(CCn1ccc(-c2ccc(O)cc2)cc1=O)(C(=O)NO)S(C)(=O)=O (stereo not shown) [Example 97, N-hydroxy-4-[4-(4-hydroxyphenyl)-2-oxopyridin-1(2H)-yl]-2-methyl-2-(methylsulfonyl)butanamide] | – | – | > 64 µg/mL | > 64 µg/mL
CC(CCn1ccc(-c2ccccc2)cc1=O)(C(=O)NO)S(C)(=O)=O (stereo not shown) [Example 98, N-hydroxy-2-methyl-2-(methylsulfonyl)-4-(2-oxo-4-phenylpyridin-1(2H)-yl)butanamide] | – | – | 64 µg/mL | 32 µg/mL
CC(=O)c1ccc(-c2ccn(CCC(C)(C(=O)NO)S(C)(=O)=O)c(=O)c2)cc1O (stereo not shown) [Example 99, 4-[4-(4-acetyl-3-hydroxyphenyl)-2-oxopyridin-1(2H)-yl]-N-hydroxy-2-methyl-2-(methylsulfonyl)butanamide] | – | – | 8 µg/mL | 16 µg/mL
CC(CCn1ccc(-c2ccc(OCCCN3CCCC(F)(F)C3)cc2)cc1=O)(C(=O)NO)S(C)(=O)=O (stereo not shown) [Example 100, 4-[4-{4-[3-(3,3-difluoropiperidin-1-yl)propoxy]phenyl}-2-oxopyridin-1(2H)-yl]-N-hydroxy-2-methyl-2-(methylsulfonyl)butanamide] | – | – | 1 µg/mL | 8 µg/mL
CC(CCn1ccc(-c2ccc([N+](=O)[O-])cc2)cc1=O)(C(=O)NO)S(C)(=O)=O (stereo not shown) [Example 101, N-hydroxy-2-methyl-2-(methylsulfonyl)-4-[4-(4-nitrophenyl)-2-oxopyridin-1(2H)-yl]butanamide] | – | – | 8 µg/mL | 4 µg/mL
